Assay results taken from US7173019B2, “Linked cyclitols and their polysulfated derivatives” (The Australian National University, priority 2001, dated 2007).
Like-named read-outs stand apart in the source and are kept apart here.

Legend:
[1] = molecular target: T1, human platelet heparanase (Homo sapiens, UniProt Q9Y251); assay: Heparanase inhibition, 3H-radiolabelled HS cleavage assay; format: biochemical; details: for inhibition: read-out: Relative inhibition (%); for EC50: heparanase inhibition; for inhibition at 10 µg/mL: read-out: Inhibition (%) at 10 μg/ml
T1 construct: 10 ng of purified human platelet heparanase; from tissue; host or cells: human platelets
T1 sequence (Q9Y251 158-543 limits assumed): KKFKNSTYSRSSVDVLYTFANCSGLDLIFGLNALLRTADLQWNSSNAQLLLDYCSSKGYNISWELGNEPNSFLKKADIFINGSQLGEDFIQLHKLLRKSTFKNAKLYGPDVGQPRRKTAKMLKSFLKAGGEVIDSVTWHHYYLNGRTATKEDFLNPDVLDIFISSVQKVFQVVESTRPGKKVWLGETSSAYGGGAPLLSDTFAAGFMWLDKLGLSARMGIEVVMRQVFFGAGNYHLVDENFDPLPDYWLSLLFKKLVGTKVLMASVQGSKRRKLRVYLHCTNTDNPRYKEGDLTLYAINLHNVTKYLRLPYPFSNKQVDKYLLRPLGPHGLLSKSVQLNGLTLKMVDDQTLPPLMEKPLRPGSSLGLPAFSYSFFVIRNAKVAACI
T1 sequence (Q9Y251 36-109 limits assumed): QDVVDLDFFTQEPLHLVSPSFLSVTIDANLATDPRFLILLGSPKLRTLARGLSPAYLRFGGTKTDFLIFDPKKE
Description: Briefly, to an incubation mixture of […] containing ^3H-radiolabelled porcine mucosal HS […], 50 mM-sodium acetate buffer, pH 5.0, […] bovine serum albumin and the inhibitor to be tested, was added 10 ng of purified human platelet heparanase and the mixture incubated for 30 min. The reaction was terminated by freezing the assay tubes. The substrate was separated from the cleavage products on minicolumns of sepharose-bound histidine-rich glycoprotein (Freeman, C., and Parish, C. R. [1997], supra).
Inhibitory activity is based on a comparison with heparin with 100% inhibition at 30 μg/ml. The compounds were also tested at the same purity as in Example 15.

[2] = molecular target: T2, human leukocyte Cathepsin G (Homo sapiens, UniProt P08311); assay: Cathepsin G inhibition, fluorogenic substrate, 96 well assay; format: biochemical; details: human leukocyte cathepsin G 100 ng, 37° C., 60 min, pH 6.6; for IC50: read-out: Amount for 50% inhibition (converted)
T2 construct: human leukocyte Cathepsin G (100 ng protein); from tissue; host or cells: human leukocytes
T2 sequence (P08311 21-244): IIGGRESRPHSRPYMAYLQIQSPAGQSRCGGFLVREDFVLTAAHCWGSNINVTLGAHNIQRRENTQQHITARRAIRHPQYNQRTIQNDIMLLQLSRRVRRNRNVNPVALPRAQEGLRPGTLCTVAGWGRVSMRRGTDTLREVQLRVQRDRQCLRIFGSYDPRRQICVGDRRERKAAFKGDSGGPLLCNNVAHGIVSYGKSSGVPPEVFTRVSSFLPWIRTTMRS
Description: Cathepsin G activity was determined using a 96 well assay format in PVC microtitre U-bottom plates with activity determination by a fluorescence plate reader. Briefly, within a total incubation volume of 40 μl, human leukocyte Cathepsin G (100 ng protein) was added to a mixture of inhibitor and the fluorogenic substrate MeOSuc-ala-ala-pro-phe-AMAC in 50 mM-NaOAc buffer, pH 6.6 containing 50 mM NaCl and 0.1% (v/v) Brij 35. The mixture was incubated at 37° C. for 60 min, the reaction stopped by the addition of 40 μl of 250 mM acetic acid and the fluorescence determined with excitation at 360 nm and emitted light measured at 460 nm.
In this table, the linked cyclitol compound identifications are the same as those given in Section A above where the structures of the compounds are also given. With regard to the purity rating, a greater number of asterisks signifies a greater degree of purity with five asterisks signifying an essentially pure compound. The cathepsin G inhibition data are the concentrations of compounds required to inhibit the enzyme by 50%.

aFGF = aFGF (Homo sapiens, UniProt P05230); assay: Biacore biosensor: inhibition of aFGF binding to immobilised heparin and heparan sulfate; details: inhibitor 0.034 μM, aFGF 0.025 μM
Chain of aFGF (P05230 whole entry, species assumed): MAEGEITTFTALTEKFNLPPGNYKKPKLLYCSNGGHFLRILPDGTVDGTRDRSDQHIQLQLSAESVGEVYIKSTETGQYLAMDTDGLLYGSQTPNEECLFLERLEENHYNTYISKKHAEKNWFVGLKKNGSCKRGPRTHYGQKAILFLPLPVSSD
Description: (§1) Assays were performed using a Biacore™ 2000 optical biosensor obtained from Biacore AB, Uppsala, Sweden. The biosensor was operated in accordance with the manufacturer's instructions. Briefly, neutravidin was covalently coupled to the surface of CM5 chips of the biosensor and then either biotinylated heparin (1 μg/ml) or biotinylated heparan sulfate ([…]) bound to the immobilised neutravidin. Mixtures of a test compound and a growth factor or other effector compound were preincubated for 2 to 5 minutes and the mixtures then added to individual biosensor cuvettes. Binding of growth factor or effector compound to the heparin or heparan sulfate was then monitored for approximately 5 minutes with the biosensor.
(§2) The tabulated values are the IC50 in μM or % inhibition of binding of the growth factor to the immobilised heparan sulfate (HS) or heparin.

VEGF = molecular target: T3, VEGF (Homo sapiens, UniProt P15692); assay: Biacore biosensor: inhibition of VEGF binding to immobilised heparin and heparan sulfate; details: inhibitor 0.034 μM, VEGF 0.025 μM
T3 sequence (P15692 27-191 isoform P15692-4): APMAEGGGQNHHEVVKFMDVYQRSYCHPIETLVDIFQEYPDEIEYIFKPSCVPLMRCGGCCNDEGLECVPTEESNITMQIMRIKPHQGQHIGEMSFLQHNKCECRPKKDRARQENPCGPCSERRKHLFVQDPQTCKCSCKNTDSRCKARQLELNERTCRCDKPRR
Description: as §1, §2

bFGF = bFGF (Homo sapiens, UniProt P09038); assay: Biacore biosensor: inhibition of bFGF binding to immobilised heparin and heparan sulfate
Chain of bFGF (P09038 134-288 limits assumed, species assumed): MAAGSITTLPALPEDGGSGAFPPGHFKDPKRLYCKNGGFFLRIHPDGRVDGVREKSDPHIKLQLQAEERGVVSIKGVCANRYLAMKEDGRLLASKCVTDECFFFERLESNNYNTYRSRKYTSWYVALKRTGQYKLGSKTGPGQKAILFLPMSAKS
Description: as §1, §2

IL-8 = molecular target: T4, IL-8 (Homo sapiens, UniProt P10145); assay: Biacore biosensor: inhibition of IL-8 binding to immobilised heparin and heparan sulfate; details: inhibitor 1.0 μM, IL-8 0.068 μM
T4 sequence (P10145 21-99): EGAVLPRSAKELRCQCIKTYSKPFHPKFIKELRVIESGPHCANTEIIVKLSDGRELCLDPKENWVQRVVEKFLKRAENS
Description: as §1

[3] = based on a comparison with heparin with 100% inhibition at 30 μg/ml
[4] = immobilised heparan sulfate, read-out: Inhibition of binding of aFGF (HS)
[5] = immobilised heparin, read-out: Inhibition of binding of aFGF (Hep)
[6] = immobilised heparan sulfate, read-out: Inhibition of binding of VEGF (HS)
[7] = immobilised heparin, read-out: Inhibition of binding of VEGF (Hep)
[8] = immobilised heparan sulfate, inhibitor 0.034 μM, bFGF 0.034 μM, read-out: Inhibition of binding of bFGF (HS)
[9] = immobilised heparin, inhibitor 0.034 μM, bFGF 0.034 μM, read-out: Inhibition of binding of bFGF (Hep)
[10] = immobilised heparan sulfate, read-out: Inhibition of binding of IL-8 (HS)
[11] = immobilised heparin, read-out: Inhibition of binding of IL-8 (Hep)

Row | inhibition [1, 3] [%] | EC50 ([1]; read-out: EC50 (converted)) [nM] | inhibition at 10 µg/mL [1] [%] | IC50 [2] [nM] | inhibition at 0.034 µM (aFGF; [4]) [%] | inhibition at 0.034 µM (aFGF; [5]) [%] | inhibition at 0.034 µM (VEGF; [6]) [%] | inhibition at 0.034 µM (VEGF; [7]) [%] | inhibition at 0.034 µM (bFGF; [8]) [%] | inhibition at 0.034 µM (bFGF; [9]) [%] | inhibition at 1 µM (IL-8; [10]) [%] | inhibition at 1 µM (IL-8; [11]) [%] | Compound | further results
1 | 48 | 20000 | 33 | 318 | 30 | 28 | 55 | 68 | 48 | 40 | 54 | 52 | O=S(=O)(O)O[C@H]1[C@H](OS(=O)(=O)O)[C@@H](N(CCCCCCCN([C@H]2C=C[C@@H](OS(=O)(=O)O)[C@@H](OS(=O)(=O)O)[C@@H]2OS(=O)(=O)O)[C@H]2C=C[C@@H](OS(=O)(=O)O)[C@@H](OS(=O)(=O)O)[C@@H]2OS(=O)(=O)O)[C@H]2C=C[C@@H](OS(=O)(=O)O)[C@@H](OS(=O)(=O)O)[C@@H]2OS(=O)(=O)O)C=C[C@H]1OS(=O)(=O)O [Compound 4h] | 
2 | 53 | 16100 | 39 | 136 | 28 | 30 | 71 | 70 | 51 | 45 | 89 | 95 | O=S(=O)(O)O[C@H]1[C@H](OS(=O)(=O)O)[C@@H](N(CCCCCCCCN([C@H]2C=C[C@@H](OS(=O)(=O)O)[C@@H](OS(=O)(=O)O)[C@@H]2OS(=O)(=O)O)[C@H]2C=C[C@@H](OS(=O)(=O)O)[C@@H](OS(=O)(=O)O)[C@@H]2OS(=O)(=O)O)[C@H]2C=C[C@@H](OS(=O)(=O)O)[C@@H](OS(=O)(=O)O)[C@@H]2OS(=O)(=O)O)C=C[C@H]1OS(=O)(=O)O [Compound 4i] | 
3 | 73 | 6130 |  | 91.9 | 31 | 31 | 54 | 64 | 43 | 46 | 65 | 62 | O=S(=O)(O)O[C@H]1[C@H](OS(=O)(=O)O)[C@@H](N(CCCCCCCCCN([C@H]2C=C[C@@H](OS(=O)(=O)O)[C@@H](OS(=O)(=O)O)[C@@H]2OS(=O)(=O)O)[C@H]2C=C[C@@H](OS(=O)(=O)O)[C@@H](OS(=O)(=O)O)[C@@H]2OS(=O)(=O)O)[C@H]2C=C[C@@H](OS(=O)(=O)O)[C@@H](OS(=O)(=O)O)[C@@H]2OS(=O)(=O)O)C=C[C@H]1OS(=O)(=O)O [Compound 4j] | 
4 | 50 |  | 39 | 133 | 39 | 43 | 30 | 41 | 45 | 36 | 54 | 67 | O=S(=O)(O)O[C@H]1[C@H](OS(=O)(=O)O)[C@@H](N(CCCCCN([C@H]2C=C[C@@H](OS(=O)(=O)O)[C@@H](OS(=O)(=O)O)[C@@H]2OS(=O)(=O)O)[C@H]2C=C[C@@H](OS(=O)(=O)O)[C@@H](OS(=O)(=O)O)[C@@H]2OS(=O)(=O)O)[C@H]2C=C[C@@H](OS(=O)(=O)O)[C@@H](OS(=O)(=O)O)[C@@H]2OS(=O)(=O)O)C=C[C@H]1OS(=O)(=O)O [Compound 4k] | 
5 | 48 | 17000 |  | 292 | 47 | 54 | 0 | 0 | 43 | 34 | 46 | 52 | O=S(=O)(O)OC(CN([C@H]1C=C[C@@H](OS(=O)(=O)O)[C@@H](OS(=O)(=O)O)[C@@H]1OS(=O)(=O)O)[C@H]1C=C[C@@H](OS(=O)(=O)O)[C@@H](OS(=O)(=O)O)[C@@H]1OS(=O)(=O)O)CN([C@H]1C=C[C@@H](OS(=O)(=O)O)[C@@H](OS(=O)(=O)O)[C@@H]1OS(=O)(=O)O)[C@H]1C=C[C@@H](OS(=O)(=O)O)[C@@H](OS(=O)(=O)O)[C@@H]1OS(=O)(=O)O [Compound 4l] | 
6 |  |  |  |  |  |  |  |  |  |  |  |  | O=S(=O)(O)OC1C(OS(=O)(=O)O)C(OS(=O)(=O)O)C(N(Cc2cccc(CN(C3C(OS(=O)(=O)O)C(OS(=O)(=O)O)C(OS(=O)(=O)O)C(OS(=O)(=O)O)C3OS(=O)(=O)O)C3C(OS(=O)(=O)O)C(OS(=O)(=O)O)C(OS(=O)(=O)O)C(OS(=O)(=O)O)C3OS(=O)(=O)O)c2)C2C(OS(=O)(=O)O)C(OS(=O)(=O)O)C(OS(=O)(=O)O)C(OS(=O)(=O)O)C2OS(=O)(=O)O)C(OS(=O)(=O)O)C1OS(=O)(=O)O (stereo not shown) [Compound 5d] | Relative inhibition (%) [1, 3]: 100%; EC50 [1]: 6 µg/mL; Amount for 50% inhibition [2]: 0.53 µg/mL; Inhibition of binding of aFGF (HS) (aFGF; immobilised heparan sulfate): 67% (HS); Inhibition of binding of aFGF (Hep) (aFGF; immobilised heparin): 72% (Hep); Inhibition of binding of VEGF (HS) (VEGF; immobilised heparan sulfate): 39% (HS); Inhibition of binding of VEGF (Hep) (VEGF; immobilised heparin): 54% (Hep); Inhibition of binding of bFGF (HS) (bFGF; immobilised heparan sulfate, inhibitor 0.034 μM, bFGF 0.034 μM): 48% (HS); IC50 (bFGF; immobilised heparan sulfate, read-out: IC50, inhibition of bFGF binding (HS)): 38 nM; Inhibition of binding of bFGF (Hep) (bFGF; immobilised heparin, inhibitor 0.034 μM, bFGF 0.034 μM): 35% (Hep); IC50 (bFGF; immobilised heparin, read-out: IC50, inhibition of bFGF binding (Hep)): 160 nM; Inhibition of binding of IL-8 (HS) (IL-8; immobilised heparan sulfate): 62% (HS); Inhibition of binding of IL-8 (Hep) (IL-8; immobilised heparin): 71% (Hep)
